Organism: Rattus norvegicus
Experiment: Open TG-GATES - Regimen: Single
Format: toxicity, organism-based, Sprague-Dawley
Parameters: regimen Single, gender Male, age 6 weeks
Conditions: in vivo, po, 1000 mg/kg, route gavage, dose level High; for APTT / Bas / Eos / Fbg / Hb / Ht / Lym / MCH / MCHC / MCV / Mono / Neu / PT / Plat / RBC / Ret / WBC: tissue Blood; for KIDNEY_L / KIDNEY_R / KIDNEY_TOTAL: tissue Kidney; for LIVER: tissue Liver; for A/G / ALP / ALT / AST / BUN / CRE / Ca / Cl / DBIL / GLC / IP / K / LDH / Na / PL / RALB / TBIL / TC / TG / TP / gamma-GTP: tissue Plasma

Structure (SMILES): CC[C@@H](CO)NCCN[C@@H](CC)CO [ETHAMBUTOL]
- TERMINAL_BW (3 h): 224.6 g
- APTT (3 h): 23.9 s
- Bas (3 h): 0%
- Eos (3 h): 0.8%
- Fbg (3 h): 301.6 mg/dL
- Hb (3 h): 13.7 g/dL
- Ht (3 h): 40.3%
- Lym (3 h): 81.2%
- MCH (3 h): 21.3 pg
- MCHC (3 h): 33.9%
- MCV (3 h): 62.7 fL
- Mono (3 h): 2.2%
- Neu (3 h): 15.4%
- PT (3 h): 15.7 s
- Plat (3 h): 126.2 x10_4/uL
- RBC (3 h): 643.4 x10_4/ul
- Ret (3 h): 7.5%
- WBC (3 h): 67.7 x10_2/uL
- KIDNEY_L (3 h): 1 g
- KIDNEY_R (3 h): 1 g
- KIDNEY_TOTAL (3 h): 2.1 g
- LIVER (3 h): 9.9 g
- A/G (3 h): 1.2
- ALP (3 h): 1529.4 IU/L
- ALT (3 h): 41.8 IU/L
- AST (3 h): 74.8 IU/L
- BUN (3 h): 10.4 mg/dL
- CRE (3 h): 0.1 mg/dL
- Ca (3 h): 10.1 mg/dL
- Cl (3 h): 106.8 meq/L
- DBIL (3 h): 0 mg/dL
- GLC (3 h): 173.8 mg/dL
- IP (3 h): 8.7 mg/dL
- K (3 h): 3.9 meq/L
- LDH (3 h): 175.6 IU/L
- Na (3 h): 141.6 meq/L
- PL (3 h): 139 mg/dL
- RALB (3 h): 3 g/dL
- TBIL (3 h): 0.018 mg/dL
- TC (3 h): 83.8 mg/dL
- TG (3 h): 35.6 mg/dL
- TP (3 h): 5.4 g/dL
- gamma-GTP (3 h): 1.8 IU/L
- TERMINAL_BW (6 h): 222.4 g
- APTT (6 h): 22.3 s
- Bas (6 h): 0%
- Eos (6 h): 1%
- Fbg (6 h): 308.6 mg/dL
- Hb (6 h): 13.7 g/dL
- Ht (6 h): 40.2%
- Lym (6 h): 77.4%
- MCH (6 h): 21.1 pg
- MCHC (6 h): 34.1%
- MCV (6 h): 61.9 fL
- Mono (6 h): 2.8%
- Neu (6 h): 18%
- PT (6 h): 15.9 s
- Plat (6 h): 123.5 x10_4/uL
- RBC (6 h): 650.6 x10_4/ul
- Ret (6 h): 7.1%
- WBC (6 h): 70.3 x10_2/uL
- KIDNEY_L (6 h): 1 g
- KIDNEY_R (6 h): 1 g
- KIDNEY_TOTAL (6 h): 2 g
- LIVER (6 h): 9.5 g
- A/G (6 h): 1.2
- ALP (6 h): 1436.4 IU/L
- ALT (6 h): 35.6 IU/L
- AST (6 h): 67.4 IU/L
- BUN (6 h): 9.8 mg/dL
- CRE (6 h): 0.1 mg/dL
- Ca (6 h): 10 mg/dL
- Cl (6 h): 108 meq/L
- DBIL (6 h): 0.002 mg/dL
- GLC (6 h): 186.4 mg/dL
- IP (6 h): 9.4 mg/dL
- K (6 h): 4.1 meq/L
- LDH (6 h): 176.4 IU/L
- Na (6 h): 141.4 meq/L
- PL (6 h): 134 mg/dL
- RALB (6 h): 3 g/dL
- TBIL (6 h): 0.03 mg/dL
- TC (6 h): 75.4 mg/dL
- TG (6 h): 43.2 mg/dL
- TP (6 h): 5.5 g/dL
- gamma-GTP (6 h): 1.4 IU/L
- TERMINAL_BW (9 h): 217 g
- APTT (9 h): 22.3 s
- Bas (9 h): 0%
- Eos (9 h): 0.2%
- Fbg (9 h): 312 mg/dL
- Hb (9 h): 13.9 g/dL
- Ht (9 h): 40.3%
- Lym (9 h): 79.2%
- MCH (9 h): 22 pg
- MCHC (9 h): 34.4%
- MCV (9 h): 64.1 fL
- Mono (9 h): 1.4%
- Neu (9 h): 17.8%
- PT (9 h): 16.3 s
- Plat (9 h): 116.9 x10_4/uL
- RBC (9 h): 630 x10_4/ul
- Ret (9 h): 7.6%
- WBC (9 h): 68.6 x10_2/uL
- KIDNEY_L (9 h): 1 g
- KIDNEY_R (9 h): 1 g
- KIDNEY_TOTAL (9 h): 1.9 g
- LIVER (9 h): 8.7 g
- A/G (9 h): 1.1
- ALP (9 h): 1464.4 IU/L
- ALT (9 h): 35.8 IU/L
- AST (9 h): 68.2 IU/L
- BUN (9 h): 11.4 mg/dL
- CRE (9 h): 0.1 mg/dL
- Ca (9 h): 9.9 mg/dL
- Cl (9 h): 108.2 meq/L
- DBIL (9 h): 0.002 mg/dL
- GLC (9 h): 177.8 mg/dL
- IP (9 h): 8.8 mg/dL
- K (9 h): 3.9 meq/L
- LDH (9 h): 143 IU/L
- Na (9 h): 140 meq/L
- PL (9 h): 121 mg/dL
- RALB (9 h): 3 g/dL
- TBIL (9 h): 0.022 mg/dL
- TC (9 h): 63.8 mg/dL
- TG (9 h): 44.6 mg/dL
- TP (9 h): 5.6 g/dL
- gamma-GTP (9 h): 1.6 IU/L
- TERMINAL_BW (24 h): 227.8 g
- APTT (24 h): 22.5 s
- Bas (24 h): 0%
- Eos (24 h): 1%
- Fbg (24 h): 306.4 mg/dL
- Hb (24 h): 13.4 g/dL
- Ht (24 h): 39.2%
- Lym (24 h): 76%
- MCH (24 h): 21.5 pg
- MCHC (24 h): 34.3%
- MCV (24 h): 62.9 fL
- Mono (24 h): 3%
- Neu (24 h): 18.6%
- PT (24 h): 16.7 s
- Plat (24 h): 118 x10_4/uL
- RBC (24 h): 623.4 x10_4/ul
- Ret (24 h): 6.9%
- WBC (24 h): 94.9 x10_2/uL
- KIDNEY_L (24 h): 1 g
- KIDNEY_R (24 h): 1.1 g
- KIDNEY_TOTAL (24 h): 2.1 g
- LIVER (24 h): 10.5 g
- A/G (24 h): 1.2
- ALP (24 h): 1508.4 IU/L
- ALT (24 h): 46.8 IU/L
- AST (24 h): 74 IU/L
- BUN (24 h): 13.4 mg/dL
- CRE (24 h): 0.1 mg/dL
- Ca (24 h): 10.5 mg/dL
- Cl (24 h): 105 meq/L
- DBIL (24 h): 0.002 mg/dL
- GLC (24 h): 183.8 mg/dL
- IP (24 h): 8.3 mg/dL
- K (24 h): 3.9 meq/L
- LDH (24 h): 158 IU/L
- Na (24 h): 139.4 meq/L
- PL (24 h): 135.4 mg/dL
- RALB (24 h): 3 g/dL
- TBIL (24 h): 0.022 mg/dL
- TC (24 h): 74.6 mg/dL
- TG (24 h): 53.2 mg/dL
- TP (24 h): 5.5 g/dL
- gamma-GTP (24 h): 2 IU/L

Source: ChEMBL document CHEMBL3885861, “Open TG-GATES”
